Legend:
bamyardgrass = test: Test B flood test barnyardgrass; type: in vivo, Echinochloa crus-galli
Outline: (§1)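 Plants were grown to the 2-leaf stage before treatment with test chemical, then held in a greenhouse for twelve to sixteen days. Injury was visually rated against untreated controls on a 0–10 scale, where 0 is no effect and 10 is complete control.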

velvetleaf = test: Test B pre/postemergence velvetleaf; type: in vivo, Abutilon theophrasti
Outline: (§2)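 Herbicidal effect was estimated by eye on a ten-point control scale after plants spent twelve to sixteen days in a greenhouse following soil or foliar treatment. Foliar sprays targeted plants at one to four leaves; all doses were formulated in a non-phytotoxic solvent with surfactant.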

giant foxtail = test: Test B pre/postemergence giant foxtail; type: in vivo, Setaria faberii
Outline: as §2

crabgrass = test: Test B pre/postemergence crabgrass; type: in vivo, Digitaria sanguinalis
Outline: as §2

duck salad = test: Test B flood test duck salad; type: in vivo, Heteranthera limosa
Outline: as §1

cocklebur = test: Test B pre/postemergence cocklebur; type: in vivo, Xanthium strumarium
Outline: as §2

wild oat = test: Test B pre/postemergence wild oat; type: in vivo, Avena fatua
Outline: as §2

corn = test: Test B pre/postemergence corn; type: in vivo, Zea mays
Outline: as §2

soybean = test: Test B pre/postemergence soybean; type: in vivo, Glycine max
Outline: as §2

smallflower flatsedge = test: Test B flood test smallflower flatsedge; type: in vivo, Cyperus difformis
Outline: as §1

surinam grass = test: Test B pre/postemergence surinam grass; type: in vivo, Brachiaria decumbens
Outline: as §2

rape = test: Test B pre/postemergence rape; type: in vivo, Brassica napus
Outline: as §2

wheat = test: Test B pre/postemergence wheat; type: in vivo, Triticum aestivum
Outline: as §2

blackgrass = test: Test B pre/postemergence blackgrass; type: in vivo, Alopecurus myosuroides
Outline: as §2

bedstraw = test: Test B pre/postemergence bedstraw; type: in vivo, Galium aparine
Outline: as §2

morningglory = test: Test B pre/postemergence morningglory; type: in vivo, Ipomoea hederacea
Outline: as §2

[1] = Pre-emergence, Rate 1000 g/ha, scale 0 to 10 (0 no effect, 10 complete control)
[2] = Rate 62 g/ha, headed Pre-emergence (flood test species), scale 0 to 10 (0 no effect, 10 complete control)
[3] = Rate 125 g/ha, Pre-emergence, flood test species, scale 0 to 10 where 0 is no effect and 10 is complete control
[4] = Rate 250 g/ha, Pre-emergence, flood-test species, scale 0 to 10, 0 is no effect, 10 is complete control
[5] = Rate 500 g/ha, Pre-emergence, flood test species, scale 0 to 10 (0 no effect, 10 complete control)
[6] = Preemergence, Rate 62 g/ha, scale of 0 to 10 where 0 is no effect and 10 is complete control
[7] = Preemergence, Rate 250 g/ha, scale of 0 to 10 where 0 is no effect and 10 is complete control
[8] = Preemergence, Rate 500 g/ha, scale of 0 to 10 where 0 is no effect and 10 is complete control
[9] = Rate 125 g/ha, Postemergence, scale of 0 to 10 where 0 is no effect and 10 is complete control
[10] = Rate 125 g/ha, Preemergence, scale of 0 to 10 where 0 is no effect and 10 is complete control
[11] = Rate 250 g/ha, Postemergence, scale of 0 to 10 where 0 is no effect and 10 is complete control
[12] = Rate 500 g/ha, Postemergence, scale 0 to 10, 0 no effect, 10 complete control
[13] = Rate 2000 g/ha, Pre-emergence (as headed), scale 0 to 10
[14] = Rate 62 g/ha, Postemergence, scale of 0 to 10 where 0 is no effect and 10 is complete control

## CCN(C(=O)n1oc(=O)n(N(C)C)c1=O)C1CCCCC1 [Compound 274]
bamyardgrass; [1]
  Barnyardgrass plant response rating: 0
bamyardgrass; [2]
  Barnyardgrass plant response rating: 0
bamyardgrass; [3]
  Barnyardgrass plant response rating: 0
bamyardgrass; [4]
  Barnyardgrass plant response rating: 0
bamyardgrass; [5]
  Barnyardgrass plant response rating: 0
bamyardgrass; Rate 2000 g/ha, Pre-emergence (as headed), scale 0 to 10, 0 no effect, 10 complete control
  Barnyardgrass plant response rating: 0
velvetleaf; [6]
  Velvetleaf plant response rating: 0
velvetleaf; [7]
  Velvetleaf plant response rating: 0
velvetleaf; [8]
  Plant response rating, Velvetleaf: 0
velvetleaf; [9]
  Velvetleaf plant response rating: 0
velvetleaf; [10]
  Velvetleaf plant response rating: 0
velvetleaf; [11]
  Plant response rating, Velvetleaf: 0
velvetleaf; [12]
  Velvetleaf plant response rating: 0
Giant foxtail; [6]
  Giant foxtail plant response rating: 0
Giant foxtail; [7]
  Giant foxtail plant response rating: 6
Giant foxtail; [8]
  Plant response rating, Giant foxtail: 9
Giant foxtail; [9]
  Giant foxtail plant response rating: 0
Giant foxtail; [10]
  Giant foxtail plant response rating: 3
Giant foxtail; [11]
  Plant response rating, Giant foxtail: 0
Giant foxtail; [12]
  Giant foxtail plant response rating: 0
crabgrass; [6]
  Crabgrass plant response rating: 0
crabgrass; [7]
  Crabgrass plant response rating: 1
crabgrass; [8]
  Plant response rating, Crabgrass: 5
crabgrass; [9]
  Crabgrass plant response rating: 0
crabgrass; [10]
  Crabgrass plant response rating: 0
crabgrass; [11]
  Plant response rating, Crabgrass: 0
crabgrass; [12]
  Crabgrass plant response rating: 0
Duck salad; [1]
  Ducksalad plant response rating: 0
Duck salad; [2]
  Ducksalad plant response rating: 0
Duck salad; [3]
  Ducksalad plant response rating: 0
Duck salad; [4]
  Ducksalad plant response rating: 0
Duck salad; [5]
  Ducksalad plant response rating: 0
Duck salad; [13]
  Ducksalad plant response rating: 0
cocklebur; [6]
  Cocklebur plant response rating: 0
cocklebur; [7]
  Cocklebur plant response rating: 0
cocklebur; [8]
  Plant response rating, Cocklebur: 0
cocklebur; [14]
  Cocklebur plant response rating: 0
cocklebur; [9]
  Cocklebur plant response rating: 0
cocklebur; [10]
  Cocklebur plant response rating: 0
cocklebur; [11]
  Plant response rating, Cocklebur: 0
cocklebur; [12]
  Cocklebur plant response rating: 0
Wild oat; [6]
  Wild oats plant response rating: 0
Wild oat; [7]
  Wild oats plant response rating: 0
Wild oat; [8]
  Plant response rating, Wild oats: 0
Wild oat; [9]
  Wild oats plant response rating: 0
Wild oat; [11]
  Plant response rating, Wild oats: 0
Wild oat; [12]
  Wild oats plant response rating: 0
corn; [6]
  Corn plant response rating: 0
corn; [7]
  Corn plant response rating: 0
corn; [8]
  Plant response rating, Corn: 0
corn; [14]
  Corn plant response rating: 0
corn; [9]
  Corn plant response rating: 0
corn; [10]
  Corn plant response rating: 0
corn; [11]
  Plant response rating, Corn: 0
corn; [12]
  Corn plant response rating: 0
soybean; [6]
  Soybean plant response rating: 0
soybean; [7]
  Soybean plant response rating: 0
soybean; [8]
  Plant response rating, Soybean: 0
soybean; [9]
  Soybean plant response rating: 3
soybean; [10]
  Soybean plant response rating: 0
soybean; [11]
  Plant response rating, Soybean: 5
soybean; [12]
  Soybean plant response rating: 5
Smallflower flatsedge; [1]
  S. Flatsedge plant response rating: 0
Smallflower flatsedge; [2]
  S. Flatsedge plant response rating: 0
Smallflower flatsedge; [3]
  S. Flatsedge plant response rating: 0
Smallflower flatsedge; [4]
  S. Flatsedge plant response rating: 0
Smallflower flatsedge; [5]
  S. Flatsedge plant response rating: 0
Smallflower flatsedge; [13]
  S. Flatsedge plant response rating: 0
Surinam grass; [6]
  B. signalgrass plant response rating: 0
Surinam grass; [7]
  B. signalgrass plant response rating: 0
Surinam grass; [8]
  Plant response rating, B. signalgrass: 0
Surinam grass; [14]
  B. signalgrass plant response rating: 0
Surinam grass; [9]
  B. signalgrass plant response rating: 0
Surinam grass; [10]
  B. signalgrass plant response rating: 0
Surinam grass; [11]
  Plant response rating, B. signalgrass: 0
Surinam grass; [12]
  B. signalgrass plant response rating: 0
rape; [6]
  Rape plant response rating: 0
rape; [7]
  Rape plant response rating: 0
rape; [8]
  Plant response rating, Rape: 0
rape; [9]
  Rape plant response rating: 0
rape; [10]
  Rape plant response rating: 0
rape; [11]
  Plant response rating, Rape: 0
rape; [12]
  Rape plant response rating: 0
wheat; [6]
  Wheat plant response rating: 0
wheat; [7]
  Wheat plant response rating: 0
wheat; [8]
  Plant response rating, Wheat: 0
wheat; [9]
  Wheat plant response rating: 0
wheat; [10]
  Wheat plant response rating: 0
wheat; [11]
  Plant response rating, Wheat: 0
wheat; [12]
  Wheat plant response rating: 0
blackgrass; [6]
  Blackgrass plant response rating: 0
blackgrass; [7]
  Blackgrass plant response rating: 0
blackgrass; [8]
  Plant response rating, Blackgrass: 0
blackgrass; [14]
  Blackgrass plant response rating: 0
blackgrass; [9]
  Blackgrass plant response rating: 0
blackgrass; [10]
  Blackgrass plant response rating: 0
blackgrass; [11]
  Plant response rating, Blackgrass: 0
blackgrass; [12]
  Blackgrass plant response rating: 0
bedstraw; [6]
  Bedstraw plant response rating: 0
bedstraw; [7]
  Bedstraw plant response rating: 0
bedstraw; [8]
  Plant response rating, Bedstraw: 0
bedstraw; [14]
  Bedstraw plant response rating: 0
bedstraw; [9]
  Bedstraw plant response rating: 0
bedstraw; [10]
  Bedstraw plant response rating: 0
bedstraw; [11]
  Plant response rating, Bedstraw: 0
bedstraw; [12]
  Bedstraw plant response rating: 0
morningglory; [6]
  Morningglory plant response rating: 0
morningglory; [7]
  Morningglory plant response rating: 0
morningglory; [8]
  Plant response rating, Morningglory: 0
morningglory; [9]
  Morningglory plant response rating: 0
morningglory; [10]
  Morningglory plant response rating: 0
morningglory; [11]
  Plant response rating, Morningglory: 0
morningglory; [12]
  Morningglory plant response rating: 0
